# How the values were obtained:
# rat = experiment: Formalin test (pain behaviors); format: in vivo; conditions: 150 μL of 1 or 2% w/v solution, topical route
# Sprague-Dawley rats = experiment: Partial sciatic nerve ligation (PSNL) model, behavioral tests; format: in vivo, rat; conditions: oral route, measured 30 minutes post dose
# Source text: 250-350 g male Sprague-Dawley rats from appropriate animal resources were anesthetized with 2.5% isoflurane. A hind leg was shaved, and the skin was sterilized with 0.5% iodine and 75% alcohol. All surgical instruments were sterilized before surgery and between animals. An incision (1 cm) was made at the middle of the thigh in parallel with the muscle and sciatic nerve distribution. The muscle was exposed and dissected at the joint of two muscles (biceps femoris) indicated by the light colored (white) fascia line. […]
# The analgesic effect of the test compound was expressed as a percent recovery (% Recovery) relative to the sham control group baseline and calculated according to the formula: % Recovery=100%−{[(sham mean-test compound mean)/(sham mean-vehicle mean)]×100%} wherein “sham mean” refers to average score in the sham-operated group; “test compound mean” refers to average score in the PSNL-group (animals with partial sciatic nerve ligation) or diabetic group (animals treated with STZ) treated with a test compound; “vehicle mean” refers to average score in the PSNL-group or diabetic group treated with vehicle only. […]
# Animals were placed under clear plastic boxes above a wire mesh floor, which allowed full access to the paws. […] Mechanical paw withdrawal thresholds (PWTs) were measured with the up-down testing paradigm. […]
# diabetic rats = experiment: Anti-diabetic and analgesic effect after chronic dosing in the rat STZ model of diabetes; format: in vivo
# Description: 250-350 g male Sprague-Dawley rats from appropriate animal resources were used. Type I diabetes was induced by a single injection, (intraperitoneally, intravenously or intramuscularly) of 50-100 mg/kg of streptozotocin (STZ, Sigma Chemicals, St. Louis, Mo. or VWR) freshly dissolved in sodium citrate (0.01 M, pH 4.5). Sham animals were given either saline or same vehicle injection. Following a wait time of about two days, inducement of diabetes was confirmed in STZ-injected rats by measuring the plasma glucose concentrations in blood samples from the tail vein after a fast of 6 hours. The glucose level was assayed using a mini glucose monitor (kit for AlphaTRAK 2 meter, available from Abbott Laboratories). Screening for hyperglycemia in STZ-injected animals was done, with only animals with a final blood glucose level ≧300 mg/dl being selected for the study. Glucose levels in the sham animals remained normal. Other parameters (water intake, food intake, and bodyweight) were monitored before the treatment with a test compound and after the cessation of the treatment.
# A Compound provided herein is tested in the rat STZ model of diabetes by chronic administration of the Compound for at least 7 days to evaluate analgesic and antidiabetic effects of the Compound. The analgesic effect of the Compound can be evaluated using behavioral tests (e.g., von Frey test, plantar test, and paw pressure test described herein below). The anti-diabetic effect of the Compound can be evaluated based on the improvement in the glucose level, food intake, water intake in the compound treated group compared to the untreated vehicle group and the normal, non-diabetic sham control group.
# Diabetes mellitus was induced in rats as described in the section entitled “The Streptozotocin (STZ)-Induced Model of Diabetic Neuropathy” above.
# The baseline glucose levels, daily food and water intake and behavioral tests (von Frey, paw pressure and plantar tests) were measured for each animal once weekly for 28 weeks, and once every 2-4 weeks for an additional 28-30 weeks. At a selected week (started from week 6) for a compound test, diabetic rats were divided into two test groups: a vehicle control group and a test compound treated group (n=10 each group). A sham group (saline only without STZ i.p. injection, n=10) was added as a normal, non-diabetic control group. To minimize animal stress associated with repeated daily handling, the compound treated diabetic group of animals received the test compound at a daily dose of 60 mg/kg in their drinking water containing 2% PEG600 and 1% glycofurol (the test compound concentration in the drinking water was based on the individual animal's average daily water consumption as determined the pre-dosing period, which averaged 0.1-0.11 mg/ml). The vehicle control group received drinking water containing 2% PEG600 and 1% glycofurol without the test compound. The treatment continued for 9 days. On day 10 drinking water with test compound or vehicle (2% PEG600 and 1% glycofurol) was replaced with plain drinking water in all groups. The monitoring of glucose levels, food and water intake as well as behavior tests continued for additional 28-30 weeks. […] A gradual, significant reversal of up to 90% of mechanical allodynia (von Frey test) was achieved after 9 days of treatment.
# FIGS. 1-3 show food intake, glucose level, and water intake, respectively, for the vehicle control group, the test compound treated group (compound 49, 60 mg/kg/day), and the sham group. […] The significant reduction of food intake, glucose level, and water intake of the compound treated group compared to the vehicle control group continues through week 52. […] Since the standard deviation in the sham groups are less than 5%, no error bars are shown.
# NaV1.7 = molecular target: T1, NaV1.7 (Homo sapiens, UniProt Q15858); experiment: FDSS membrane potential in-vitro assay; format: cell-based; conditions: stimulation with veratridine and scorpion venom
# T1 construct: expressed in transfected cells
# T1 sequence (Q15858 whole entry): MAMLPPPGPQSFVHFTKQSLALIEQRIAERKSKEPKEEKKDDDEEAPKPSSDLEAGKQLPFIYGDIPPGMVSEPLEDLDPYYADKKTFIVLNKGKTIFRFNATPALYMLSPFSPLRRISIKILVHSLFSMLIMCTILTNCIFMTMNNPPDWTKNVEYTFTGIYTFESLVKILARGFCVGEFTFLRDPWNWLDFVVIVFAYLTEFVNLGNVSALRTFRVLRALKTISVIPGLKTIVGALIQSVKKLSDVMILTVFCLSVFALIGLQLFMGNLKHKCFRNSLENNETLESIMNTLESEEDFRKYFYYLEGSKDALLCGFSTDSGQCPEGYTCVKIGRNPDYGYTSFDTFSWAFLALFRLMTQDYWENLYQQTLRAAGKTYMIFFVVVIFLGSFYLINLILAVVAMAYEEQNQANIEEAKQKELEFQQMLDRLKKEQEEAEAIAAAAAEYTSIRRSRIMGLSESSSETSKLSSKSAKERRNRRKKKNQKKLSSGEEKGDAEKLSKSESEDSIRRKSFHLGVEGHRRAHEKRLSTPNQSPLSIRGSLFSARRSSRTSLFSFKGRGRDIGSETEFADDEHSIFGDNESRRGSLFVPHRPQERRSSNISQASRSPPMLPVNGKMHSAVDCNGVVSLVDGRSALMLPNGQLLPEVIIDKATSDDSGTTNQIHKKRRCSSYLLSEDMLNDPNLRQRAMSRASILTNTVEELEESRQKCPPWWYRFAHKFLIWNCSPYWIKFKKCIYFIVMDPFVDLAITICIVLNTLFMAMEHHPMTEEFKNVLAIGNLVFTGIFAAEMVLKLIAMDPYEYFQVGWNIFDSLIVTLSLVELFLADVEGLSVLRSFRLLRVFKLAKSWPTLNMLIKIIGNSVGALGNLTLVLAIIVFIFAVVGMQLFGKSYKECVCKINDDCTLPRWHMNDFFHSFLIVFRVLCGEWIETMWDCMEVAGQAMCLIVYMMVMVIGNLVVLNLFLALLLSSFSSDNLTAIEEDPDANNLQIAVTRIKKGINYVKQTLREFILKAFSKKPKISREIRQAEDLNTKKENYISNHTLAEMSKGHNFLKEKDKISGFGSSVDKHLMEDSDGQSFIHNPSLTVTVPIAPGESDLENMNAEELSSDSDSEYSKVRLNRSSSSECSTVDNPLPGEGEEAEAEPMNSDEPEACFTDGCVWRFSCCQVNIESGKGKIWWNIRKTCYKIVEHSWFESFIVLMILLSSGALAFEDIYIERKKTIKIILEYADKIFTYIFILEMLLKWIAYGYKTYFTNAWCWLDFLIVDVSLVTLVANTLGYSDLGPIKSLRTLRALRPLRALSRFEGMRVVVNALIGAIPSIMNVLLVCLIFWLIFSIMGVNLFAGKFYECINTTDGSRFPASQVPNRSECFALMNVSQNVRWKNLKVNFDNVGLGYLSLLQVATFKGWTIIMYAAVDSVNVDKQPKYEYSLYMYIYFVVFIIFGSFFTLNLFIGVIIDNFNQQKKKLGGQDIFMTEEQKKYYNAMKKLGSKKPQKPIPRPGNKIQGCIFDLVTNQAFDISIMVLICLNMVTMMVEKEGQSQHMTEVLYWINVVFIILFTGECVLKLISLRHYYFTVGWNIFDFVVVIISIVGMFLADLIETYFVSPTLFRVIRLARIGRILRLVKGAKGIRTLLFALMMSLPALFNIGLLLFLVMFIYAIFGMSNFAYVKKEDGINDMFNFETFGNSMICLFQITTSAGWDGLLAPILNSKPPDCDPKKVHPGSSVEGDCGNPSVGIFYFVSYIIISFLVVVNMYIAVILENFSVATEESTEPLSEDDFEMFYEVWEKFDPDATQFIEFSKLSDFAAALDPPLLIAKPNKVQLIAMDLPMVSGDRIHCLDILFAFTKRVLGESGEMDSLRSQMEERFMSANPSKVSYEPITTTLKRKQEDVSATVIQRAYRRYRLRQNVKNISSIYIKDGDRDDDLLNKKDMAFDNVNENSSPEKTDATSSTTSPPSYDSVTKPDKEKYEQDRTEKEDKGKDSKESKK
# T1 sequence (Q07699 19-218 partner): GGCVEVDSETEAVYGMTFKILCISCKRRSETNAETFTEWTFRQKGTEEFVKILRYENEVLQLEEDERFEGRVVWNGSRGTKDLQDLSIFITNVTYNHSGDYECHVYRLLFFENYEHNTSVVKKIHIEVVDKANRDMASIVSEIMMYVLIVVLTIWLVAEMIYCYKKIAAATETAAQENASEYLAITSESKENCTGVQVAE
# T1 sequence (O60939 30-215 partner): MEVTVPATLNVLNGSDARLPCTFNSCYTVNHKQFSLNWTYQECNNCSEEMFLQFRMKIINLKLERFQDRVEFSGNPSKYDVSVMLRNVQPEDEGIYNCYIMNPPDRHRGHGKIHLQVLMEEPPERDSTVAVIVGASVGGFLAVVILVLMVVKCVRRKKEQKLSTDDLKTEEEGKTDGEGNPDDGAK
# Description: In vitro assays were performed in recombinant cell line that stably express a heterotrimeric protein of interest from an introduced nucleic acid encoding the alpha subunit (hNav1.7, SCN9A), the beta subunit (SCNB1) and the beta subunit (SCNB2). The cell line was engineered using Human Embryonic Kidney 293 cells as host background. Additional cell lines stably expressing recombinant Nav1.7 or Nav1.5 alpha subunit alone or in combination with various beta subunits can also be used in in-vitro assays. […]
# Blue membrane potential dye (Molecular Devices Inc.), or membrane potential-sensitive dye, HLB021-152 (AnaSpec) were combined with a fluorescence quencher, e.g., Dipicrylamine (DPA), Acid Violet 17 (AV 17), Diazine Black (DB), HLB30818, FD and C Black Shade, Trypan Blue, Bromophenol Blue, HLB30701, HLB30702, HLB30703, Nitrazine Yellow, Nitro Red, DABCYL (Molecular Probes), FD and C Red NO. […]
# The cells were incubated with the membrane potential dye for 45-60 mins at 37° C. The dye-loaded assay plates were then placed in the high-throughput fluorescent plate reader (Hamamatsu FDSS). The kinetic read was started with assay plate imaging every second. […]
# Control response elicited by veratridine and scorpion venom with buffer only (without test compounds added) was taken as the maximal response. […] The data were analyzed using GraphPad Prism software to determine the […] value for the test compound. […]
# [1] = diabetic rats, 60 mg/kg/day in drinking water, 9 days
# [2] = measured on day 11, two days after compound withdrawal
SMILES,reduction in pain response (formalin assay phase 2) relative to vehicle control (rat),"reduction in pain response (formalin assay, phase 1) relative to vehicle control (rat)",effect in the tactile allodynia test relative to vehicle control (Sprague-Dawley rats),"food intake compared to the vehicle control group (diabetic rats; FIG. 1, 60 mg/kg/day for 9 days, reduction continues through week 52)","glucose level compared to the vehicle control group (diabetic rats; FIG. 2, 60 mg/kg/day for 9 days, reduction continues through week 52)","water intake compared to the vehicle control group (diabetic rats; FIG. 3, 60 mg/kg/day for 9 days, reduction continues through week 52)",general appearance and/or health (diabetic rats; after the treatment stopped on day 9),mechanical pain (paw pressure test) (diabetic rats; [1]),tachyphylaxis (diabetic rats; [1]),thermal pain (plantar test) (diabetic rats; [1]),paw pressure test threshold after compound withdrawal (diabetic rats; [2]),plantar test threshold after compound withdrawal (diabetic rats; [2]),IC50 (NaV1.7) [nM]
"O=C(O)CCNCCCc1cc(Cl)ccc1Oc1cc(F)c(S(=O)(=O)Nc2ncns2)cc1Cl [Compound 12, 3-((3-(2-(4-(N-(1,2,4-thiadiazol-5-yl)sulfamoyl)-2-chloro-5-fluorophenoxy)-5-chlorophenyl)propyl)amino)propanoic acid]",29-43%,13-24%,–,–,–,–,–,–,–,–,–,–,–
"NC(=O)CNCCCc1cc(Cl)ccc1Oc1cc(F)c(S(=O)(=O)Nc2cscn2)cc1Cl [Compound 49, 2-((3-(5-chloro-2-(2-chloro-5-fluoro-4-(N-(thiazol-4-yl)sulfamoyl)phenoxy)phenyl)propyl)amino)acetamide]",–,–,no significant effect,significantly reduced,significantly reduced,significantly reduced,improvements in general appearance and/or health,rapid and sustained improvement,no tachyphylaxis,rapid and sustained improvement,returned to the pretreatment baseline,returned to the pretreatment baseline,–
"C#CCN(CCCc1cc(Cl)ccc1Oc1cc(F)c(S(=O)(=O)Nc2nccs2)cc1Cl)CC(=O)O [Compound 54, 2-((3-(5-chloro-2-(2-chloro-5-fluoro-4-(N-(thiazol-2-yl)sulfamoyl)phenoxy)phenyl)propyl)(prop-2-yn-1-yl)amino)acetic acid]",–,–,no significant effect,–,–,–,–,–,–,–,–,–,< 100

# — patent US9458118B2, “Sodium channel modulators for the treatment of pain and diabetes” (CHROMOCELL CORPORATION, priority 2013, dated 2016)
